Experimental data: patent EP4722207A1, “OXOISOINDOLINYL-SUBSTITUTED TETRAHYDROPYRIMIDINEDIONE DERIVATIVE AND USE THEREOF” (Gluetacs Therapeutics (Shanghai) Co., Ltd., priority 2023, dated 2024)

Columns and labels:
MM.1S = assay: Cell viability assay (CellTiter-Meiluncell Luminescent), tumor cell proliferation, MM.1S; details: Homo sapiens, MM1.S, 96 h, read-out: inhibitory activity (IC50, nM) against tumor cells proliferation, MM.1S
Description: The tumor cells used herein were cultured in a cell culture medium listed in table 2 at 37°C in an incubator with 5% CO2. Prior to experimentation, all cell lines used were correctly identified by STR profiling, and tested negative for mycoplasma contamination using a mycoplasma detection kit through routine screenings.
On the following day, the test compounds of the present disclosure were subjected to serial dilution. […] Subsequently, 0.5 µL of the test compound dilution was transferred into the 96-well plate containing the cells, with each well containing 100 µL of cell culture medium. […] Into the 96-well plate, the diluted test compounds and corresponding detection reagents were added, resulting in final test compound concentrations of 500 nM and 10 nM, respectively. The experimental procedure is described below using the diluted 2 µM test compound as an example.
(§1) After the cells were treated with the compounds of the present disclosure for a specified period, the cell viability assay reagent was added to the culture medium according to the kit's instructions to determine cell viability. […] All controls were treated using the same procedure as the compounds of the present disclosure. The growth inhibition curves for the compounds of the present disclosure were plotted using Prism GraphPad software, and the IC50 values were calculated therefrom.

Jurkat = assay: Cell viability assay (CellTiter-Meiluncell Luminescent), tumor cell proliferation, Jurkat; details: Homo sapiens, 96 h, read-out: inhibitory activity (IC50, nM) against tumor cells proliferation, Jurkat
Description: (§2) On the following day, the test compounds of the present disclosure were subjected to serial dilution. […] Subsequently, 0.5 µL of the test compound dilution was transferred into the 96-well plate containing the cells, with each well containing 100 µL of cell culture medium. […] Into the 96-well plate, the diluted test compounds and corresponding detection reagents were added, resulting in final test compound concentrations of 500 nM and 10 nM, respectively.
as §1

IKZF2 = target: T1, IKZF2 (Homo sapiens, UniProt Q96SW2+Q9UKS7); assay: Western-blot assay, substrate protein degradation in hPBMCs: IKZF2; assay type: cell-based; details: compounds at 50 nM and 500 nM, 24 hours
T1 construct: effects of the compounds of the present disclosure on the expression of target proteins in cells; endogenous in cells; host or cells: human PBMCs (hPBMCs)
T1 sequence (Q9UKS7 whole entry): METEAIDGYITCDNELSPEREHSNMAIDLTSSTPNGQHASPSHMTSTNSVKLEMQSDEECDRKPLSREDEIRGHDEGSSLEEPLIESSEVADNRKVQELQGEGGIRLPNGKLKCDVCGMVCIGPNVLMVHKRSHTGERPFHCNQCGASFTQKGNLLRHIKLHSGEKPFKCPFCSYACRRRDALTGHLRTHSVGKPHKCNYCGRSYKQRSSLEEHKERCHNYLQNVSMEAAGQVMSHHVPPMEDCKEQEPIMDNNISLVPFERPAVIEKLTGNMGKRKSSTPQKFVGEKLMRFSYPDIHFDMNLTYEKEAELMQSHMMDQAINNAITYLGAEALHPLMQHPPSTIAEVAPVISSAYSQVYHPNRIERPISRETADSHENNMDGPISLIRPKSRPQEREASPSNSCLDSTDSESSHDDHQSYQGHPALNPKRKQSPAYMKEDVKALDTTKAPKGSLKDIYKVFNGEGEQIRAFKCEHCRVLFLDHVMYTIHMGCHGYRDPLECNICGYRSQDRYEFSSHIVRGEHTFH
T1 sequence (Q96SW2 whole entry): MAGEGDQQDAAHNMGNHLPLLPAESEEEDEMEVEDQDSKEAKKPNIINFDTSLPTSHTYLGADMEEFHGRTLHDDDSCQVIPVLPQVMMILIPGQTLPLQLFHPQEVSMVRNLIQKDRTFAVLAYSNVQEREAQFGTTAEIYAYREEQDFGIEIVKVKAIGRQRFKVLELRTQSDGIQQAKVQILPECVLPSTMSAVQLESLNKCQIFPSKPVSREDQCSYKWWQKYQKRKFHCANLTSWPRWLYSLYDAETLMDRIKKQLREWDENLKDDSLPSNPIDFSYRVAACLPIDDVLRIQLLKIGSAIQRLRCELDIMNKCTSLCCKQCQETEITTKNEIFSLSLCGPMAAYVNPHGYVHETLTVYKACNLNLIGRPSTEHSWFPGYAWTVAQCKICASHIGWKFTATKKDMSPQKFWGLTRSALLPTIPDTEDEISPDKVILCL
T1 sequence (Q16531 whole entry partner): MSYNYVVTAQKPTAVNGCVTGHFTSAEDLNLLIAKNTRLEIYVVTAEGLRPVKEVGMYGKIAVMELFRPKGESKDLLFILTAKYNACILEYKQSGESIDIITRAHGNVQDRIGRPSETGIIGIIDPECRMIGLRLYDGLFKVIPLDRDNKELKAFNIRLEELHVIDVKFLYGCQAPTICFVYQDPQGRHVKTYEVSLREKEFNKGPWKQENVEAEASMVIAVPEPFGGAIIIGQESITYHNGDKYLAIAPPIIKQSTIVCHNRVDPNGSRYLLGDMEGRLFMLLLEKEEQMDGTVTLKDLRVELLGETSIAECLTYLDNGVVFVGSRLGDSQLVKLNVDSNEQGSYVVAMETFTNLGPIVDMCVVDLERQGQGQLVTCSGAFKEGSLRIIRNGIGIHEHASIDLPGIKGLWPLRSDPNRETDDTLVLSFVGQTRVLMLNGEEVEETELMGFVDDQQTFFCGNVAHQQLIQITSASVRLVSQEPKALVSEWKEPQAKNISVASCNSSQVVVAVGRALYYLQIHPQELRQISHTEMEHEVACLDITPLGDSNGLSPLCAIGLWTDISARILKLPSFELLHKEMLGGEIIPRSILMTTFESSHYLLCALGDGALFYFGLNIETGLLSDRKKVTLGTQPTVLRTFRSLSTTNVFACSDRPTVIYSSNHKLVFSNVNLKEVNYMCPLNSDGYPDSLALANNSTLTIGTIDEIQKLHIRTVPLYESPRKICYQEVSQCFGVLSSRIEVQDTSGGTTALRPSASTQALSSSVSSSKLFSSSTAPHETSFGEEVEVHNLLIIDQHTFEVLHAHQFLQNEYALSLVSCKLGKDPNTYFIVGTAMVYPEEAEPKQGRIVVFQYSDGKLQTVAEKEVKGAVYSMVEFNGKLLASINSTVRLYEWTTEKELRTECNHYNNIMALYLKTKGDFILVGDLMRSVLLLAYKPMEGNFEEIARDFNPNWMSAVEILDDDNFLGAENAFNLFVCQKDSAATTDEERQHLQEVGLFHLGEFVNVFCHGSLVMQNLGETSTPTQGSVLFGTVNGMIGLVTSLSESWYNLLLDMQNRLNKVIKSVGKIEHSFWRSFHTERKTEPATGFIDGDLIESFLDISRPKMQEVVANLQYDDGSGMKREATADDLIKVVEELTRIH

CK1α = target: T2, CK1α (Homo sapiens, UniProt P48729+Q96SW2); assay: Western-blot assay, substrate protein degradation in hPBMCs: CK1α; assay type: cell-based; details: compounds at 50 nM and 500 nM, 24 hours
T2 construct: effects of the compounds of the present disclosure on the expression of target proteins in cells; endogenous in cells; host or cells: human PBMCs (hPBMCs)
T2 sequence (P48729 whole entry): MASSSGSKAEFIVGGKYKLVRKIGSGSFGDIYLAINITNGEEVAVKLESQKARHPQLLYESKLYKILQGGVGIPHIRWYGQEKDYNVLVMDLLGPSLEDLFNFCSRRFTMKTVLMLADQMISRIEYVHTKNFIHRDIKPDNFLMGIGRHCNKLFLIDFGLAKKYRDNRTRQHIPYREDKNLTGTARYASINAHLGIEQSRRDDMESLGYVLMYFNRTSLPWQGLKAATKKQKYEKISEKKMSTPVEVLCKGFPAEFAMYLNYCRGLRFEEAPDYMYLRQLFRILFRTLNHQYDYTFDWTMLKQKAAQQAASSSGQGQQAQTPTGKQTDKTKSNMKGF
T2 sequence (Q96SW2 whole entry): as the sequence (Q96SW2 whole entry) above
T2 sequence (Q16531 whole entry partner): as the sequence (Q16531 whole entry partner) above

WEE1 = target: T3, WEE1 (Homo sapiens, UniProt P30291+Q96SW2); assay: Western-blot assay, substrate protein degradation in hPBMCs: WEE1; assay type: cell-based; details: compounds at 50 nM and 500 nM, 24 hours
T3 construct: effects of the compounds of the present disclosure on the expression of target proteins in cells; endogenous in cells; host or cells: human PBMCs (hPBMCs)
T3 sequence (P30291 whole entry): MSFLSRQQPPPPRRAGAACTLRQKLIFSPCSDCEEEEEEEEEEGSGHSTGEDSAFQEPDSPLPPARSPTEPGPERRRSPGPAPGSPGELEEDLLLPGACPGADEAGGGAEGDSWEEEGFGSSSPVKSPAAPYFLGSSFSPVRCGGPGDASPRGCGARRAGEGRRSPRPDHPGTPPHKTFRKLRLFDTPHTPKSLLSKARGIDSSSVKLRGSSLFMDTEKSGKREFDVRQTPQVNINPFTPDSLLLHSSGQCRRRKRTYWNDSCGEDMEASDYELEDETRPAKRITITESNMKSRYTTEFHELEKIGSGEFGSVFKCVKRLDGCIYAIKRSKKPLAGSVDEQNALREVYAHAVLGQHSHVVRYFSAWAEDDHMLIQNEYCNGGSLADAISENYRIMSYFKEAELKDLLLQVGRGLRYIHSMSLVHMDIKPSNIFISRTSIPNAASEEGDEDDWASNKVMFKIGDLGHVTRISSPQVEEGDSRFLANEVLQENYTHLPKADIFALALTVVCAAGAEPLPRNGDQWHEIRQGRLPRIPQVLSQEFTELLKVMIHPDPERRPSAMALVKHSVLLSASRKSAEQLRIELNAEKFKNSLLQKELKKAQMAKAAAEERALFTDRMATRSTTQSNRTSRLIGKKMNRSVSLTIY
T3 sequence (Q96SW2 whole entry): as the sequence (Q96SW2 whole entry) above
T3 sequence (Q16531 whole entry partner): as the sequence (Q16531 whole entry partner) above

GSPT1 = target: T4, GSPT1 (Homo sapiens, UniProt P15170+Q96SW2); assay: Western-blot assay, substrate protein degradation in hPBMCs: GSPT1; assay type: cell-based; details: compounds at 50 nM and 500 nM, 24 hours
T4 construct: effects of the compounds of the present disclosure on the expression of target proteins in cells; endogenous in cells; host or cells: human PBMCs (hPBMCs)

IKZF3 = target: T5, IKZF3 (Homo sapiens, UniProt Q96SW2+Q9UKT9); assay: Western-blot assay, substrate protein degradation in hPBMCs: IKZF3; assay type: cell-based; details: compounds at 50 nM and 500 nM, 24 hours
T5 construct: effects of the compounds of the present disclosure on the expression of target proteins in cells; endogenous in cells; host or cells: human PBMCs (hPBMCs)
T5 sequence (Q9UKT9 whole entry): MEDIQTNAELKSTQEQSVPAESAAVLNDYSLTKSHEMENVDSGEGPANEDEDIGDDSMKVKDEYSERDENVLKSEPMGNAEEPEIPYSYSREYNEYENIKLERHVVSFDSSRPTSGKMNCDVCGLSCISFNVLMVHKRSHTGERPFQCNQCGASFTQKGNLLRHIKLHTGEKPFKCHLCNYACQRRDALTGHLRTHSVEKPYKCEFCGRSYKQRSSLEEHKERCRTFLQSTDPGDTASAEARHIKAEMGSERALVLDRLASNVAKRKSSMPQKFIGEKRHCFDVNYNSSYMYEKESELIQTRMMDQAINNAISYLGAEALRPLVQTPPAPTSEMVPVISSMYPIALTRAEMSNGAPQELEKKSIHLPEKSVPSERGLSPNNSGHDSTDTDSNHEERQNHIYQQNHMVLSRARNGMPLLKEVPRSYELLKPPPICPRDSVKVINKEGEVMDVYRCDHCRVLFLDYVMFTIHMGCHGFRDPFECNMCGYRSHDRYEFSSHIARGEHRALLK
T5 sequence (Q96SW2 whole entry): as the sequence (Q96SW2 whole entry) above
T5 sequence (Q16531 whole entry partner): as the sequence (Q16531 whole entry partner) above

MGC803 = assay: Cell viability assay (CellTiter-Meiluncell Luminescent), tumor cell proliferation, MGC803; details: Homo sapiens, MGC-803, 96 h, read-out: inhibitory activity (IC50, nM) against tumor cells proliferation, MGC803
Description: as §2, §1

IKZF1 = target: T6, IKZF1 (Homo sapiens, UniProt Q13422+Q96SW2); assay: Western-blot assay, substrate protein degradation in hPBMCs: IKZF1; assay type: cell-based; details: compounds at 50 nM and 500 nM, 24 hours
T6 construct: effects of the compounds of the present disclosure on the expression of target proteins in cells; endogenous in cells; host or cells: human PBMCs (hPBMCs)
T6 sequence (Q13422 whole entry): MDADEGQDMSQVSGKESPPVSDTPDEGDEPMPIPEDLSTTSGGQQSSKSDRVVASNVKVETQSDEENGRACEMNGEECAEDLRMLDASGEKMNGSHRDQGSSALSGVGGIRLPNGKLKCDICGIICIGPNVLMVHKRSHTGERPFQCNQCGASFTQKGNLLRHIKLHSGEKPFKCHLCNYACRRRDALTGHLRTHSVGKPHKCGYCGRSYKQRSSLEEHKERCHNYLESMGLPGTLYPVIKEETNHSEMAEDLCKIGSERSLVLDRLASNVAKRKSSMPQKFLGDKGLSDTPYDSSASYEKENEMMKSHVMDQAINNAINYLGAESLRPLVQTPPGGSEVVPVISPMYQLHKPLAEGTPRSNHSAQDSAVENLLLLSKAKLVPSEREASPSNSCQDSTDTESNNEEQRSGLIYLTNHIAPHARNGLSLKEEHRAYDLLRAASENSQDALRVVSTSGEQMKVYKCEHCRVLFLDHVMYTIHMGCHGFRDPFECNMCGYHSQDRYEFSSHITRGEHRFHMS
T6 sequence (Q96SW2 whole entry): as the sequence (Q96SW2 whole entry) above
T6 sequence (Q16531 whole entry partner): as the sequence (Q16531 whole entry partner) above

Structure (SMILES)	IC50 (MM.1S) [nM]	IC50 (Jurkat) [nM]	IKZF2 substrate protein remaining % (IKZF2)	CK1α substrate protein remaining % (CK1α)	WEE1 substrate protein remaining % (WEE1)	GSPT1 substrate protein remaining % (GSPT1)	IKZF3 substrate protein remaining % (IKZF3)	IC50 (MGC803) [nM]	IKZF1 substrate protein remaining % (IKZF1)
O=C1CCN(N2Cc3cc(CN4CCC(N(c5ccccc5)c5ccccn5)CC4)ccc3C2=O)C(=O)N1 [GT-04940, 1-(1-oxo-5-((4-(phenyl(pyridin-2-yl)amino)piperidin-1-yl)methyl)isoindolin-2-yl)dihydropyrimidine-2,4(1H,3H)-dione]	50 to 100	100 to 300	A ("A" is defined as 0% ≤ substrate protein remaining % ≤ 80%)	A ("A" is defined as 0% ≤ substrate protein remaining % ≤ 80%)	A ("A" is defined as 0% ≤ substrate protein remaining % ≤ 80%)	A ("A" is defined as 0% ≤ substrate protein remaining % ≤ 80%)	A ("A" is defined as 0% ≤ substrate protein remaining % ≤ 80%)	100 to 300	A ("A" is defined as 0% ≤ substrate protein remaining % ≤ 80%)
O=C1CCN(N2Cc3cc(CN4CCN(C(c5ccccc5)c5ccccc5)CC4)ccc3C2=O)C(=O)N1 [GT-04889, 1-(5-((4-benzhydrylpiperazin-1-yl)methyl)-1-oxoisoindolin-2-yl)dihydropyrimidine-2,4(1H,3H)-dione]	100 to 300	300 to 500	A ("A" is defined as 0% ≤ substrate protein remaining % ≤ 80%)	B ("B" is defined as 80%< substrate protein remaining %≤ 100%)	A ("A" is defined as 0% ≤ substrate protein remaining % ≤ 80%)	A ("A" is defined as 0% ≤ substrate protein remaining % ≤ 80%)	A ("A" is defined as 0% ≤ substrate protein remaining % ≤ 80%)	300 to 500	A ("A" is defined as 0% ≤ substrate protein remaining % ≤ 80%)
O=C1CCN(N2Cc3cc(CN4CCN(c5cccc6sccc56)CC4)ccc3C2=O)C(=O)N1 [GT-04866, 1-(5-((4-(benzo[b]thiophen-4-yl)piperazin-1-yl)methyl)-1-oxoisoindolin-2-yl)dihydropyrimidine-2,4(1H,3H)-dione]	100 to 300	300 to 500	B ("B" is defined as 80%< substrate protein remaining %≤ 100%)	B ("B" is defined as 80%< substrate protein remaining %≤ 100%)	A ("A" is defined as 0% ≤ substrate protein remaining % ≤ 80%)	A ("A" is defined as 0% ≤ substrate protein remaining % ≤ 80%)	B ("B" is defined as 80%< substrate protein remaining %≤ 100%)	300 to 500	A ("A" is defined as 0% ≤ substrate protein remaining % ≤ 80%)
Cc1ccc(C2=CCN(Cc3ccc4c(c3)CN(N3CCC(=O)NC3=O)C4=O)CC2)s1 [GT-04869, 1-(5-((4-(5-methylthiophen-2-yl)-3,6-dihydropyridin-1(2H)-yl)methyl)-1-oxoisoindolin-2-yl)dihydropyrimidine-2,4(1H,3H)-dione]	50 to 100	300 to 500	A ("A" is defined as 0% ≤ substrate protein remaining % ≤ 80%)	B ("B" is defined as 80%< substrate protein remaining %≤ 100%)	A ("A" is defined as 0% ≤ substrate protein remaining % ≤ 80%)	A ("A" is defined as 0% ≤ substrate protein remaining % ≤ 80%)	A ("A" is defined as 0% ≤ substrate protein remaining % ≤ 80%)	300 to 500	A ("A" is defined as 0% ≤ substrate protein remaining % ≤ 80%)
Cc1ccsc1C1=CCN(Cc2ccc3c(c2)CN(N2CCC(=O)NC2=O)C3=O)CC1 [GT-04870, 1-(5-((4-(3-methylthiophen-2-yl)-3,6-dihydropyridin-1(2H)-yl)methyl)-1-oxoisoindolin-2-yl)dihydropyrimidine-2,4(1H,3H)-dione]	50 to 100	100 to 300	A ("A" is defined as 0% ≤ substrate protein remaining % ≤ 80%)	B ("B" is defined as 80%< substrate protein remaining %≤ 100%)	A ("A" is defined as 0% ≤ substrate protein remaining % ≤ 80%)	A ("A" is defined as 0% ≤ substrate protein remaining % ≤ 80%)	A ("A" is defined as 0% ≤ substrate protein remaining % ≤ 80%)	100 to 300	A ("A" is defined as 0% ≤ substrate protein remaining % ≤ 80%)
O=C1CCN(N2Cc3cc(CN4CCC(N(c5ccccc5)c5ccccc5)CC4)ccc3C2=O)C(=O)N1 [GT-04939, 1-(5-((4-(diphenylamino)piperidin-1-yl)methyl)-1-oxoisoindolin-2-yl)dihydropyrimidine-2,4(1H,3H)-dione]	10 to 50	100 to 300	A ("A" is defined as 0% ≤ substrate protein remaining % ≤ 80%)	A ("A" is defined as 0% ≤ substrate protein remaining % ≤ 80%)	A ("A" is defined as 0% ≤ substrate protein remaining % ≤ 80%)	A ("A" is defined as 0% ≤ substrate protein remaining % ≤ 80%)	A ("A" is defined as 0% ≤ substrate protein remaining % ≤ 80%)	100 to 300	A ("A" is defined as 0% ≤ substrate protein remaining % ≤ 80%)
O=C1CCN(N2Cc3cc(CN4CC=C(c5ccsc5)CC4)ccc3C2=O)C(=O)N1 [GT-04871, 1-(1-oxo-5-((4-(thiophen-3-yl)-3,6-dihydropyridin-1(2H)-yl)methyl)isoindolin-2-yl)dihydropyrimidine-2,4(1H,3H)-dione]	100 to 300	300 to 500	B ("B" is defined as 80%< substrate protein remaining %≤ 100%)	B ("B" is defined as 80%< substrate protein remaining %≤ 100%)	A ("A" is defined as 0% ≤ substrate protein remaining % ≤ 80%)	A ("A" is defined as 0% ≤ substrate protein remaining % ≤ 80%)	B ("B" is defined as 80%< substrate protein remaining %≤ 100%)	300 to 500	A ("A" is defined as 0% ≤ substrate protein remaining % ≤ 80%)
O=C1CCN(N2Cc3cc(CN4CC=C(c5cccs5)CC4)ccc3C2=O)C(=O)N1 [GT-04868, 1-(1-oxo-5-((4-(thiophen-2-yl)-3,6-dihydropyridin-1(2H)-yl)methyl)isoindolin-2-yl)dihydropyrimidine-2,4(1H,3H)-dione]	100 to 300	300 to 500	B ("B" is defined as 80%< substrate protein remaining %≤ 100%)	A ("A" is defined as 0% ≤ substrate protein remaining % ≤ 80%)	A ("A" is defined as 0% ≤ substrate protein remaining % ≤ 80%)	A ("A" is defined as 0% ≤ substrate protein remaining % ≤ 80%)	B ("B" is defined as 80%< substrate protein remaining %≤ 100%)	300 to 500	A ("A" is defined as 0% ≤ substrate protein remaining % ≤ 80%)
Cc1cscc1C1=CCN(Cc2ccc3c(c2)CN(N2CCC(=O)NC2=O)C3=O)CC1 [GT-04872, 1-(5-((4-(4-methylthiophen-3-yl)-3,6-dihydropyridin-1(2H)-yl)methyl)-1-oxoisoindolin-2-yl)dihydropyrimidine-2,4(1H,3H)-dione]	10 to 50	100 to 300	B ("B" is defined as 80%< substrate protein remaining %≤ 100%)	B ("B" is defined as 80%< substrate protein remaining %≤ 100%)	A ("A" is defined as 0% ≤ substrate protein remaining % ≤ 80%)	A ("A" is defined as 0% ≤ substrate protein remaining % ≤ 80%)	B ("B" is defined as 80%< substrate protein remaining %≤ 100%)	100 to 300	A ("A" is defined as 0% ≤ substrate protein remaining % ≤ 80%)
